{"source": "paper PMC6738096", "about": "(British Journal of Cancer, 2019)", "key": {"[1]": {"target": "T1, hNav1.5 (Homo sapiens, UniProt Q14524)", "T1 construct": "expressed in transfected cells; host or cells: HEK-293", "T1 sequence (Q14524 whole entry)": "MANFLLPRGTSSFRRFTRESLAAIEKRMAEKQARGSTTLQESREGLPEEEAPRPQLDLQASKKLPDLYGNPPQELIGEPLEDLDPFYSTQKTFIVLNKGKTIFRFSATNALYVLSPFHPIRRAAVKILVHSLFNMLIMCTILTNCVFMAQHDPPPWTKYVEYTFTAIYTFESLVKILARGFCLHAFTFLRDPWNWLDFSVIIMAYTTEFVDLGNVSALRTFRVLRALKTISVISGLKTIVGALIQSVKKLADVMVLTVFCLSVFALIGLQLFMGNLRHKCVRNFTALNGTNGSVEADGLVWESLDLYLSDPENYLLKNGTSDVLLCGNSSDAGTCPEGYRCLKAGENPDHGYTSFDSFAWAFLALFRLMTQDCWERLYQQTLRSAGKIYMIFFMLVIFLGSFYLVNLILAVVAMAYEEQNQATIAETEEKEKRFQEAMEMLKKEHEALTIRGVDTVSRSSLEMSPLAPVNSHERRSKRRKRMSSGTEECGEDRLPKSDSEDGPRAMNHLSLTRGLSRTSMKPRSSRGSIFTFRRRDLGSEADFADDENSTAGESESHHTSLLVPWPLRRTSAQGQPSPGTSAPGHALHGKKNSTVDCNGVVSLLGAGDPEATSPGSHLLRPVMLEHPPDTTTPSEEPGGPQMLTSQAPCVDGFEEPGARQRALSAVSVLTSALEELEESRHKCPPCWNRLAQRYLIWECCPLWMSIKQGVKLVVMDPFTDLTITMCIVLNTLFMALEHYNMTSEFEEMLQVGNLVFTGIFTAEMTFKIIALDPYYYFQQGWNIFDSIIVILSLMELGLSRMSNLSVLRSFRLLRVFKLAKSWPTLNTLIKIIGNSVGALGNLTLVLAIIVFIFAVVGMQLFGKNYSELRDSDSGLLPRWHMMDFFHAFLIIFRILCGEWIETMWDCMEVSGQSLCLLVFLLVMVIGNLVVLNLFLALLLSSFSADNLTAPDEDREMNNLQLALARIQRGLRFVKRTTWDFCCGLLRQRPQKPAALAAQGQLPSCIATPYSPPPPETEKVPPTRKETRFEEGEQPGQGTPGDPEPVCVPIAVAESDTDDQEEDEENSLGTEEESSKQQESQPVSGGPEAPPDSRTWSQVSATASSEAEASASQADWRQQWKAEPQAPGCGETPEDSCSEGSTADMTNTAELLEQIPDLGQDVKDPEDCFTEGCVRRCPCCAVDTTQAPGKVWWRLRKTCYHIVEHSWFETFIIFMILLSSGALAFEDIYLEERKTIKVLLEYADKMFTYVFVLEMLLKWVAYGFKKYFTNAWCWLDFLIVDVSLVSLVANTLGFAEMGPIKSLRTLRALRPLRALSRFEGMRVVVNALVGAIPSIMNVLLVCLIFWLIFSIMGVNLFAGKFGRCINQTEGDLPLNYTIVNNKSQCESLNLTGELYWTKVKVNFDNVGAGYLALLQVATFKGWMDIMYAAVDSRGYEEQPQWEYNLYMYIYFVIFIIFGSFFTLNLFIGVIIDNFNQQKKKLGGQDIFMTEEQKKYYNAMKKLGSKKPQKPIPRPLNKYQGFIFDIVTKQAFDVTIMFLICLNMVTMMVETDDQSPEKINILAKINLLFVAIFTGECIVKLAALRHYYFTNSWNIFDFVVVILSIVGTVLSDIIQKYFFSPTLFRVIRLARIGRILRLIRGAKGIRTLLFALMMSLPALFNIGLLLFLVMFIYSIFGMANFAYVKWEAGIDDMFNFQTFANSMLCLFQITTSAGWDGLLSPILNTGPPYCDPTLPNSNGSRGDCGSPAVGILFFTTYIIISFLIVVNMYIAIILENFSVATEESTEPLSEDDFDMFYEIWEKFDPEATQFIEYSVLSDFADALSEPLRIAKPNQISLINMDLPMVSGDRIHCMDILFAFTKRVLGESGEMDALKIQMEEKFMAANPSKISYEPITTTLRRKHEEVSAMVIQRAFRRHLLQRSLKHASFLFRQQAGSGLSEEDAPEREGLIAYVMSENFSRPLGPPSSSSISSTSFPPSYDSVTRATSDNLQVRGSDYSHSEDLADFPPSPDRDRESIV", "experiment": "hNav1.5 expressed in HEK-293 cells", "type": "cell-based", "settings": "read-out: IC50 against hNav1.5"}, "[2]": {"tested_on": "calcium channel", "experiment": "Functional patch-clamp test, calcium channel inhibition", "type": "cell-based"}, "[3]": {"description": "During the phase 1 trial, all patients were monitored by ECGs as part of safety evaluations. […] Cardiac function (QT, Bazett-corrected QT formula, Fridericia-corrected QT formula [QTcF], PR, QRS, RR and heart rate) was evaluated by a 12-lead ECG with triplicate readouts at scheduled time points, along with changes from baseline to each scheduled time point.\nAll the ΔQTcF data with matching drug concentration values were used for the analysis."}, "[4]": {"target": "CYP3A4 (Homo sapiens, UniProt P08684)", "sequence (P08684 whole entry)": "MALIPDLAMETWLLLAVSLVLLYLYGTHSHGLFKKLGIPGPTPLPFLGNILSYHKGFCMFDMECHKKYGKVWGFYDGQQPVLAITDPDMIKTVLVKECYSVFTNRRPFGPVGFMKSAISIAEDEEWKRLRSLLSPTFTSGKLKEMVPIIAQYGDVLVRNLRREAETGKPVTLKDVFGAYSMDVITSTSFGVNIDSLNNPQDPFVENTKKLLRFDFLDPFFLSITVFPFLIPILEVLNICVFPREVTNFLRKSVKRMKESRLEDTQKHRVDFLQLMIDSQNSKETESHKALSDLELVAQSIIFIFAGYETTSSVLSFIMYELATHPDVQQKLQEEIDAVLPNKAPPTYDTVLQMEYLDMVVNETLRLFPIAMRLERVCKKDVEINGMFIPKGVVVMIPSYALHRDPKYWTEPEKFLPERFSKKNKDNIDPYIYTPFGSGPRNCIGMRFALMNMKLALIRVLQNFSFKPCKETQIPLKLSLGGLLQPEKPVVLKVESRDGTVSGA", "experiment": "biochemical"}}, "note": "Like-named read-outs stand apart in the source and are kept apart here.", "data": [{"smiles": "CC(C)NC(=O)[C@H]1CC[C@@H](n2c(NC(=O)c3ccc(F)cc3)nc3ccc(CN4CCC(C(C)(C)O)CC4)cc32)CC1", "note": "[TSR-011]", "values": [{"measurement": "IC50", "setting": "[1]", "result": 7.6, "unit": "µM"}, {"measurement": "IC50", "setting": "[2]", "result": "> 10", "unit": "µM"}, {"measurement": "Mean ΔQTcF", "setting": "[3]; 120 mg QD (n = 1)", "result": 19, "unit": "ms"}, {"measurement": "Upper bound of the two-sided 90% CI of mean ΔQTcF", "setting": "[3]; 120 mg QD (n = 1)", "result": 27, "unit": "ms"}, {"measurement": "Frequency of drug-related QTc prolongation", "setting": "[3]; 40-mg TID (Q8h) RP2D", "result": 9.7, "unit": "%"}, {"measurement": "Patients with ΔQTc of > 60 ms and QTc > 500 ms (grade 3 event)", "setting": "[3]; 40-mg TID (Q8h), one in 27 patients", "result": 3.7, "unit": "%"}, {"measurement": "Mean ΔQTcF", "setting": "[3]; 40-mg TID cohort (n = 27), 90% CI 9.75–12.00 ms", "result": 11, "unit": "ms"}, {"measurement": "ΔQTcF", "setting": "[3]; QD doses at 240 mg (n = 3), 320 mg (n = 3) and 480 mg (n = 4)", "result": "> 20", "unit": "ms"}, {"measurement": "Slope of linear regression, plasma concentration versus ΔQTcF", "setting": "[3]; all dose groups, 95% CI 0.01970–0.02747, P < 0.0001", "result": 0.02358}, {"measurement": "Mean ΔQTcF", "setting": "[3]; fractionated BID (Q12h) and TID (Q8h) regimens, cumulative daily doses of 60 and 120 mg, all four regimens", "result": "below 20 ms"}, {"measurement": "Frequency of drug-related QTc prolongation", "setting": "[3]; overall safety population", "result": 16.7, "unit": "%"}, {"measurement": "IC50", "setting": "[4]", "result": 23.3, "unit": "µM"}]}]}
